The source of these data is patent US6172066A, “Dihydropyrimidines and uses thereof” (Synaptic Pharmaceutical Corporation, priority 1997, dated 2001).

Assay [1] has as its target T1, α1D Human Adrenergic Receptor (Homo sapiens, UniProt P25100).
T1 construct: The entire coding region of α1D (1719 bp); expressed in transfected cells
T1 sequence (P25100 1-572): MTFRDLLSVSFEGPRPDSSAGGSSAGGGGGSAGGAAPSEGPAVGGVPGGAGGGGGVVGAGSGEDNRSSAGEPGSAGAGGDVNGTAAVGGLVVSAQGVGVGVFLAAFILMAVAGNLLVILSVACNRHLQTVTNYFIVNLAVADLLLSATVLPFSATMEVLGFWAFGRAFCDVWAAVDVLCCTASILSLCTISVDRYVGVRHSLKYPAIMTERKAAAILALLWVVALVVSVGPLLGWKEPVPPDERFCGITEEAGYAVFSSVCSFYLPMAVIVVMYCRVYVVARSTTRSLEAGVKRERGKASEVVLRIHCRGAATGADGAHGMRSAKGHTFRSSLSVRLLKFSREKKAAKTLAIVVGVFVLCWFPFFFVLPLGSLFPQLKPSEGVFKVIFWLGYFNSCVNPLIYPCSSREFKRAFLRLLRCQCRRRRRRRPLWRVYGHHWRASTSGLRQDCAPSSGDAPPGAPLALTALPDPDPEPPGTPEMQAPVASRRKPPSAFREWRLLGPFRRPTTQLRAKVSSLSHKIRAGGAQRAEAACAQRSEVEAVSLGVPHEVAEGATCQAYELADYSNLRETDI
Kind of assay: Radioligand binding, [3H]prazosin displacement, cloned human α1D receptor (LM(tk-) cell membranes). The following applies: [3H]prazosin 0.5 nM, 37° C., 20 min; for Ki: read-out: hα1D pKi (converted). How it is done: (§1) The activity of compounds at the different human receptors was determined in vitro using cultured cell lines that selectively express the receptor of interest. These cell lines were prepared by transfecting the cloned cDNA or cloned genomic DNA or constructs containing both genomic DNA and cDNA encoding the human α-adrenergic receptors as follows:
The entire coding region of α1D (1719 bp), including 150 base pairs of 5' untranslated sequence (5' UT) and 300 bp of 3' untranslated sequence (3' UT), was cloned into the BamHI and ClaI sites of the polylinker-modified eukaryotic expression vector pCEXV-3, called EXJ.HR. The construct involved the ligation of partial overlapping human lymphocyte genomic and hippocampal cDNA clones: 5' sequence were contained on a 1.2 kb SmaI-XhoI genomic fragment (the vector-derived BamHI site was used for subcloning instead of the internal insert-derived SmaI site) and 3' sequences were contained on an 1.3 kb XhoI-ClaI cDNA fragment (the ClaI site was from the vector polylinker). Stable cell lines were obtained by cotransfection with the plasmid α1A/EXJ (expression vector containing the α1A receptor gene (old nomenclature)) and the plasmid pGCcos3neo (plasmid containing the aminoglycoside transferase gene) into LM(tk-) cells using calcium phosphate technique. The cells were grown, in a controlled environment (37° C., 5% CO2), as monolayers in Dulbecco's modified Eagle's Medium (GIBCO, Grand Island, N.Y.) containing 25 mM glucose and supplemented with 10% bovine calf serum, 100 units/ml penicillin g, and 100 μg/ml streptomycin sulfate. Stable clones were then selected for resistance to the antibiotic G-418 (1 mg/ml), and membranes were harvested and assayed for their ability to bind [^3 H]prazosin as described below (see "Radioligand Binding assays").
The cell line expressing the human α1D receptor used herein was designated L-α1A (old nomenclature) and was deposited with the American Type Culture Collection, 12301 Parklawn Drive, Rockville, Md. 20852, U.S.A. under the provisions of the Budapest Treaty for the International Recognition of the Deposit of Microorganisms for the Purposes of Patent Procedure. The cell line expressing the human α1D receptor, was accorded ATCC Accession No. CRL 11138, and was deposited on Sep. 25, 1992.
(§2) Transfected cells from culture flasks were scraped into 5 ml of 5 mM Tris-HCl, 5 mM EDTA, pH 7.5, and lysed by sonication. The cell lysates were centrifuged at 1000 rpm for 5 min at 4° C., and the supernatant was centrifuged at 30,000×g for 20 min at 4° C. The pellet was suspended in 50 mM Tris-HCl, 1 mM MgCl2, and 0.1% ascorbic acid at pH 7.5. Binding of the α1 antagonist [^3 H]prazosin (0.5 nM, specific activity 76.2 Ci/mmol) to membrane preparations of LM(tk-) cells was done in a final volume of 0.25 ml and incubated at 37° C. for 20 min. Nonspecific binding was determined in the presence of 10 μM phentolamine. The reaction was stopped by filtration through GF/B filters using a cell harvester. Inhibition experiments, routinely consisting of 7 concentrations of the tested compounds, were analyzed using a non-linear regression curve-fitting computer program to obtain Ki values.

The target in assay [2] is T2, α1B Human Adrenergic Receptor (Homo sapiens, UniProt P35368).
T2 construct: The entire coding region of a1B (1563 bp); expressed in transfected cells
T2 sequence (P35368 1-520): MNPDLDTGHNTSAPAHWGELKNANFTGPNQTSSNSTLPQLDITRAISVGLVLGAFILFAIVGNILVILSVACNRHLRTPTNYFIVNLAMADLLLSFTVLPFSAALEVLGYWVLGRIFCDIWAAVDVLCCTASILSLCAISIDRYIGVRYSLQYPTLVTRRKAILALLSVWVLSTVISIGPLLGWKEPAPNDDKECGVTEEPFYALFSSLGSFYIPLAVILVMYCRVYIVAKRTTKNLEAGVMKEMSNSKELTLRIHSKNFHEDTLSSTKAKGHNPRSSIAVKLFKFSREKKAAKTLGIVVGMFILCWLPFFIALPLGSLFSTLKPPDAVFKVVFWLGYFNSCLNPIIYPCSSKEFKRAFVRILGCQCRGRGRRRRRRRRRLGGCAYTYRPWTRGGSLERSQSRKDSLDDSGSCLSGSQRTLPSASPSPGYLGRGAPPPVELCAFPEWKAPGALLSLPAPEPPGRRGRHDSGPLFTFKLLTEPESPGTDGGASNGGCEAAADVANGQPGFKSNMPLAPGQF
Kind of assay: Radioligand binding, [3H]prazosin displacement, cloned human α1B receptor (LM(tk-) cell membranes). The following applies: [3H]prazosin 0.5 nM, 37° C., 20 min; for Ki: read-out: hα1B pKi (converted). How it is done: as §1
The entire coding region of a1B (1563 bp), including 200 base pairs and 5' untranslated sequence (5' UT) and 600 bp of 3' untranslated sequence (3' UT), was cloned into the EcoRI site of pCEXV-3 eukaryotic expression vector. The construct involved ligating the full-length containing EcoRI brainstem cDNA fragment from λ ZapII into the expression vector. Stable cell lines were selected as described above. The cell line used herein was designated L-α1B and was deposited with the American Type Culture Collection, 12301 Parklawn Drive, Rockville, Md. 20852, U.S.A. under the provisions of the Budapest Treaty for the International Recognition of the Deposit of Microorganisms for the Purposes of Patent Procedure. The cell line L-α1B was accorded ATCC Accession No. CRL 11139, on Sep. 25, 1992.
as §2

Counter-ions that a name gives are not always drawn.

On to `COC(=O)C1=C(C)NC(=O)N(C(=O)NCCN[C@H]2CC[C@](C#N)(c3ccccc3F)CC2)C1c1ccc(F)c(F)c1` (single isomer, unassigned; (+)) [Example 13, (+)-cis-6-(3,4-Difluorophenyl)-1-{N-[2-(4-cyano-4-(2-fluorophenyl)-cyclohexylamino)ethyl]}carboxamido-5-methoxycarbonyl-4-methyl-2-oxo-1,2,3,6-tetrahydropyrimidine hydrochloride], for which the figures for the Ki in assay [1] and in assay [2] were 51.3 nM and 13.5 nM, respectively.

Consider `COCC1=C(C(=O)OC)C(c2ccc(F)c(F)c2)N(C(=O)NCCN[C@H]2CC[C@H](c3ccccn3)CC2)C(=O)N1` (single isomer, unassigned; (+)) [Example 7, (+)-trans-6-(3,4-Difluorophenyl)-1-{N-[2-(4-(2-pyridyl)-cyclohexylamino)ethyl]}carboxamido-5-methoxycarbonyl-4-methoxymethyl-2-oxo-1,2,3,6-tetrahydropyrimidine hydrochloride], for which the figures for the Ki in assay [1] and in assay [2] were 3890 nM and 1120 nM, respectively.

As for `COCC1=C(C(=O)OC)C(c2ccc(F)c(F)c2)N(C(=O)NCCN[C@H]2CC[C@](C#N)(c3ccccc3)CC2)C(=O)N1` (single isomer, unassigned; (+)) [Example 4, (+)-cis-6-(3,4-Difluorophenyl)-1-{N-[2-(4-cyano-4-phenyl-cyclohexylamino)ethyl]}carboxamido-5-methoxycarbonyl-4-methoxymethyl-2-oxo-1,2,3,6-tetrahydropyrimidine hydrochloride], the results for the Ki in assay [1] and in assay [2] were 100 nM and 18.6 nM, respectively.

For “cis-6-(3,4,5-Trifluorophenyl)-1-{N-[2-(4-cyano-4-phenyl-cyclohexylamino)ethyl]}-carboxamido-5-acetyl-4-methoxymethyl-2-oxo-1,2,3,6-tetrahydropyrimidine hydrochloride [Example 2]”, the “hα1D pKi” value in assay [1] is recorded as 7.05. In assay [2], the “hα1B pKi” value is given as 7.76.

Regarding `COCC1=C(C(=O)OC)C(c2ccc(F)c(F)c2)N(C(=O)NCCN[C@H]2CC[C@](C#N)(c3ccccn3)CC2)C(=O)N1` (single isomer, unassigned; (+)) [Example 14, (+)-cis-6-(3,4-Difluorophenyl)-1-{N-[2-(4-cyano-4-(2-pyridyl)-cyclohexylamino)ethyl]}carboxamido-5-methoxycarbonyl-4-methoxymethyl-2-oxo-1,2,3,6-tetrahydropyrimidine hydrochloride], the Ki in assay [1] was 1100 nM; in assay [2], 282 nM.

Regarding `COCC1=C(C(=O)OC)C(c2ccc(F)c(F)c2)N(C(=O)NCCN[C@H]2CC[C@@](C#N)(c3ccccc3)CC2)C(=O)N1` (single isomer, unassigned; (+)) [Example 5, (+)-trans-6-(3,4-Difluorophenyl)-1-{N-[2-(4-cyano-4-phenyl-cyclohexylamino)ethyl]}carboxamido-5-methoxycarbonyl-4-methoxymethyl-2-oxo-1,2,3,6-tetrahydropyrimidine hydrochloride], the figures for the Ki in assay [1] and in assay [2] were 123 nM and 26.9 nM, respectively.

Regarding `COCC1=C(C(=O)OC)C(c2ccc(F)c(F)c2)N(C(=O)NCCN[C@H]2CC[C@](C(=O)OC)(c3ccccc3)CC2)C(=O)N1` (single isomer, unassigned; (+)) [Example 11, (+)-cis-6-(3,4-Difluorophenyl)-1-{N-[2-(4-methoxycarbonyl-4-phenyl-cyclohexylamino)ethyl]}carboxamido-5-methoxycarbonyl-4-methoxymethyl-2-oxo-1,2,3,6-tetrahydropyrimidine hydrochloride], the figures for the Ki in assay [1] and in assay [2] were 126 nM and 27.5 nM, respectively.

Turning to `CCC1=C(C(N)=O)C(c2ccc(F)cc2F)N(C(=O)NCCN[C@H]2CC[C@](C#N)(c3ccccc3)CC2)C(=O)N1` (single isomer, unassigned; (+)) [Example 3, (+)-cis-5-Carboxamido-6-(2,4-difluorophenyl)-1-{N-[2-(4-cyano-4-phenyl-cyclohexylamino)ethyl]}carboxamido-4-ethyl-2-oxo-1,2,3,6-tetrahydropyrimidine hydrochloride], the Ki was 240 nM in assay [1] and 100 nM in assay [2].
